Consider twelve molecules from patent publication US20140170210A1, “METHODS FOR TREATING IMMUNOSUPPRESSION” (TRUSTEES OF DARTMOUTH COLLEGE, priority 2011, published 2014).

One series deals with WT and Acat1-/- BM cells. The series can be described thus: Proliferation of cultured BM cells, 3H-thymidine pulse. Format: cell-based, mouse. The conditions noted are these: for effect on higher 3H-thymidine incorporation phenotype of Acat1-/- BM cells: 10 μM U0126, 1 μM PP2, 72 hours culture with growth factors. The method, then: WT and Acat1−/− BM cells were cultured in IMDM media containing 10% FBS in the presence of indicated growth factors with or without specific inhibitors as indicated for 72 hours. Concentrations of growth factors used: 100 ng/mL for stem cell factor, 6 ng/mL for IL3; 2 ng/ml for GM-CSF. Concentration of inhibitors used: 10 μM for U0126; 1 μM for PP2. Proliferation was measured after a 3 hour ^3H-thymidine pulse in intact cells. Results are means±SEM of duplicate cultures in 3 separate experiments. **P<0.01, * P<0.05 vs. WT.
For cell proliferation measurement in vivo, the manufacturer's protocol (BD Pharmingen; BrdU flow kit) was used. Age- and sex-matched mice of both genotypes were injected intraperitoneally twice, once every 12 hours, with 0.5 mg bromodeoxyuridine (BrdU)/injection/mouse. Twenty-four hours after the first injection, BM progenitor cells (LSKs, CMPs, GMPs, and MEPs) were stained and sorted as described earlier. Proliferation of each of the sorted cell populations was measured by measuring BrdU incorporation, using the BrdU flow kit (BD Pharmingen). Proliferation measurement of BM derived-myeloid cells in culture was carried out using a known method (Yvan-Charvet et al. 2010. supra). Briefly, after lysis of red blood cells from crude BM, cells were cultured in IMDM (Gibco) containing 10% fetal bovine serum (FBS) for 2 hours to remove attached cells. The unattached cells were replated for 72 hours in various conditions as described in FIG. 4. Stem cell factor, IL3, and GM-CSF were from R&D Systems. U0126, PP2, and ApoA1 were from Sigma. Squalene synthase inhibitor (SSI) compound CP-340868 was from Pfizer. Cells were pulsed with 2 μCi/mL ^3H-thymidine for 3 hours and ^3H-thymidine incorporation was monitored by using liquid scintillation counter.

The conditions of series [1]: laboratory animals; cited from earlier work.
Series [2] concerns the target T1, hACAT-2 (Homo sapiens, UniProt O75908).
T1 sequence (O75908 1-522): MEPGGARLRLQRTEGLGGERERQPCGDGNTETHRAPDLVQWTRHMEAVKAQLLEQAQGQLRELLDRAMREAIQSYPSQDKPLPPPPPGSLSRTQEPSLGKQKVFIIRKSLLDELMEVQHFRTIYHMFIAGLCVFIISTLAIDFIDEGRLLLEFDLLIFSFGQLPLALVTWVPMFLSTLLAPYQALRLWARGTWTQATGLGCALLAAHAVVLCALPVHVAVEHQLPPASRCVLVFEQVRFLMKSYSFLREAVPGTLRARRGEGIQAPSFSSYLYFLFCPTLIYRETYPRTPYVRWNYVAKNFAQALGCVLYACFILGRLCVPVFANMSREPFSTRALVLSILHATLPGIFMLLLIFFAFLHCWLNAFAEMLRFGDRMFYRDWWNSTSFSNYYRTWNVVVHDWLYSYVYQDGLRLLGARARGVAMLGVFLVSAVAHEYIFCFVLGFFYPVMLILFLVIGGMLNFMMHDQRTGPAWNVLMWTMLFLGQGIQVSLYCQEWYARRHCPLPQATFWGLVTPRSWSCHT
To be noted: cited from earlier work.

The target of series [3] is T2, ACAT1 (Homo sapiens, UniProt P35610).
T2 sequence (P35610 1-550): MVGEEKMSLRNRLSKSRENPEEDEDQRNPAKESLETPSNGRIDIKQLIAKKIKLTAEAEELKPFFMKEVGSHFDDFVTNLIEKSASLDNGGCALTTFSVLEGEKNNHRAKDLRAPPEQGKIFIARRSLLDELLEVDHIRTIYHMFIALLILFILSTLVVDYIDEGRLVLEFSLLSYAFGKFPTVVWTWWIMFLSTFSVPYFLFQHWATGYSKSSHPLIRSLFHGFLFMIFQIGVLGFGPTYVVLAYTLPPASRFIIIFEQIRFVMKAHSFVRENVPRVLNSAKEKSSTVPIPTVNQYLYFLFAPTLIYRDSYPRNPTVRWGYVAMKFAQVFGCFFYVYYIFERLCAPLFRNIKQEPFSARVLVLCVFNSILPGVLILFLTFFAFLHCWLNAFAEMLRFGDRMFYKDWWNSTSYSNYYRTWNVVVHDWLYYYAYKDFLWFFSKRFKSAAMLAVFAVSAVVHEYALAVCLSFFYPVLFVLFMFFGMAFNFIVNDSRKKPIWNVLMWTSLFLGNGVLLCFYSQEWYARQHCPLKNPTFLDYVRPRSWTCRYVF
To be noted: cited from earlier work.

Series [4] deals with T2, ACAT1. The conditions noted are these: cited from earlier work. This is another data set of the same source.
The target in series [5] is T2, ACAT1. The conditions noted are these: cited from earlier work. The source holds these as a separate data set.
In series [6] the target is T1, hACAT-2. The conditions noted are these: cited from earlier work. This is another data set of the same source.
Series [7] concerns amyloid plaque load and cognitive deficits. To be noted: cited from earlier work.
For series [8] the following is noted: rats, dogs, and humans; cited from earlier work.
The subject of series [9] is cholesterol ester content in various systemic tissues. The conditions noted are these: 4-30 mg/kg/day, small animals; cited from earlier work.
Another series relates to human macrophages. The conditions noted are these: in vitro; cited from earlier work.
Another series has as its system coronary atherosclerosis. The conditions noted are these: in combination with a statin drug, patients; cited from earlier work.
The target of the next series is T3, ACAT2 (Chlorocebus aethiops, UniProt O77759).
T3 sequence (O77759 1-526): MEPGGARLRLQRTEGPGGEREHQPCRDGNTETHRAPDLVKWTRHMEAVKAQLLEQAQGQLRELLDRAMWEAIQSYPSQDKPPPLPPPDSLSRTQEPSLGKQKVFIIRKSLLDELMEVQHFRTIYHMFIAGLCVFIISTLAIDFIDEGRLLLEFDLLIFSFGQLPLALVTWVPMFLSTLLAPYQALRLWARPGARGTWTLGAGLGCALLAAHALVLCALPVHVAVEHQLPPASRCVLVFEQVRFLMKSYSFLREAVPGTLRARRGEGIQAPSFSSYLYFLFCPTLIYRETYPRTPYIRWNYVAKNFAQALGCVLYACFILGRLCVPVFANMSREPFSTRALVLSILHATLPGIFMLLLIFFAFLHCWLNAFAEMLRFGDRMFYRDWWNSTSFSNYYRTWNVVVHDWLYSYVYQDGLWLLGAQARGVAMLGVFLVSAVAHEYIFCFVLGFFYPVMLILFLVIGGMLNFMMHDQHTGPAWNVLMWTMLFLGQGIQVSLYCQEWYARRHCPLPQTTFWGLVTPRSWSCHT
To be noted: read-out: selective inhibition, ACAT2; cited from earlier work.

Series [10] deals with atherosclerosis, familial hypercholesterolemia. The conditions noted are these: patients with high risk for atherosclerosis or familial hypercholesterolemia; cited from earlier work.
The next series concerns ACAT1 and ACAT2. The conditions noted are these: cited from earlier work.
A further series has as its system mouse ACAT1. As to the kind of experiment: ACAT1 knockdown by Acat1 miRs in NIH-3T3 mouse fibroblasts. The class given is cell-based. To be noted: pre-microRNAs SEQ ID NO:5 and 6. The source says: Four different siRNA sequences (#52-#55) targeting the mouse Acat1 (also called Soat1) gene were inserted into an endogenous mouse microRNA (miR) scaffold using Invitrogen's RNAi design tool. The artificial miRs were ligated into the mammalian expression vector pcDNA6.2-GW/EmGFP-miR. […] The miRs were delivered to the cells by using standard cDNA transfection protocol. […] These two Acat1 miR sequences and the NC miR sequence were also subcloned into an rAAV backbone vector (AAV-6P-SEWB) that contained the […]. This vector contains a strong and cell-type-nonspecific promoter that expresses Acat1 miRs in any cell type where the viral genome is expressed. For identification purpose, it also coexpresses the GFP with the miRs. These three constructs were used to produce three recombinant AAV viruses. To test the efficacy and specificity of these viruses, cultured primary hippocampal neurons were treated with the NC AAV, or with AAV that expresses miR that contain siRNA Acat1 #55. Two weeks after viral infection, the effects of AAVs on cholesteryl ester biosynthesis in neurons were tested. […] One month after injection, mice were sacrificed and the ACAT1 enzyme activities in the mouse brain homogenates were analyzed by using standard ACAT enzyme activity assay in vitro.

Setting [11] is: mouse model for Alzheimer disease.

Where two headings read alike, the source gives them in different places.

“ApoA1: a cellular cholesterol efflux mediator”: in the series on WT and Acat1-/- BM cells (ApoA1 at 50 or 100 μg/ml), the “effect on enhanced proliferation of Acat1-/- BM cells” value was “did not diminish”. Take `N#CC(=C(/N)Sc1ccccc1N)/C(C#N)=C(\N)Sc1ccccc1N` [U0126]: the “effect on higher 3H-thymidine incorporation phenotype of Acat1-/- BM cells” value with WT and Acat1-/- BM cells was “partially alleviated”. Regarding `CSc1cc(C)nc(SC)c1NC(=O)CN1CCN(CCSc2nc3ccccc3[nH]2)CC1` [K-604], in [1], the “safety for use in vivo” value is “safe”. Take saucerneol B: the IC50 on hACAT-2 [2] is 124 µM; at ACAT1 [3], 43 µM. `COc1ccc([C@@H](O)[C@@H](C)Oc2ccc([C@H]3O[C@H](c4ccc(O[C@H](C)[C@H](O)c5ccc6c(c5)OCO6)c(OC)c4)[C@H](C)[C@H]3C)cc2OC)cc1OC` [manassantin B]: the “inhibition of hACAT-2” value on hACAT-2 [2] (at 1 mM) is listed as 32%. `CCOC(=O)OC(=O)OCC` [diethyl pyrocarbonate]: at ACAT1 [4], the “greater activity on ACAT1 compared to ACAT-2” value is 4 fold. For the molecule `CC(C)c1cc(C(C)C)c(CC(=O)NS(=O)(=O)Oc2c(C(C)C)cccc2C(C)C)c(C(C)C)c1` [Avasimibe], the IC50 on ACAT1 [5] was 18.7 µM. Moreover, the IC50 at hACAT-2 [6] was 19.1 µM. The “activity in a mouse model for Alzheimer's disease” value in series [7] (14.4 mg/kg/day) was “beneficial activity”. Besides, in [7] (setting [11]), the amyloid plaque load entry is on record as “significant decreases” and the cognitive deficits result is reported as “reduction in cognitive deficits”. Besides, the safety when administered entry in [8] is reported as “safe”. For the same molecule, the “reducing cholesterol ester content in various systemic tissues” value in series [9] is “effective”. The “foam cell formation in macrophages” value with human macrophages is recorded as “reduces foam cell formation”. Besides, the “efficacy to further reduce progression of coronary atherosclerosis” value in the series on coronary atherosclerosis was “failed to demonstrate efficacy”. Turning to `CC(C)(C)n1nc(-c2ccc(Cl)cc2)c2c(N)ncnc21` [PP2], in the series on WT and Acat1-/- BM cells, the “effect on higher 3H-thymidine incorporation phenotype of Acat1-/- BM cells” value is given as “partially alleviated”. With beauveriolide I, the IC50 on ACAT2 is 20 µM. With `CCCCCCCCN1CCc2c(C)c(CC(=O)O)c(C)c(NC(=O)C(C)(C)C)c21` [Pactimibe], the “efficacy as a supplement to statin treatment” value in [10] is “lacked efficacy”. Moreover, the “relative potency on ACAT1 and ACAT2” value in the series on ACAT1 and ACAT2 was “approximately equal potency”.

B1: #54: microRNA against mouse ACAT1, target sequence SEQ ID NO:3; pre-microRNA SEQ ID NO:5 (nucleic acid)
chain: TGCTGTCCAGTATCAGAATGAACCGGGTTTTGGCCACTGACTGACCCGGTTCACTGATACTGGA
modifications: expressed or natural sequence
On to B1, for which the “mouse ACAT1 expression” value with mouse ACAT1 was “decrease”.

B2: #55: microRNA against mouse ACAT1, target sequence SEQ ID NO:4; pre-microRNA SEQ ID NO:6 (nucleic acid)
chain: TGCTGTACAGTAGGAGTCCTTGGGTAGTTTTGGCCACTGACTGACTACCCAAGCTCCTACTGTA
modifications: expressed or natural sequence
For the molecule B2, the “mouse ACAT1 expression” value in the series on mouse ACAT1 is recorded as “decrease”.
